In US20240317748A1, “CARBONYL SUBSTITUTED DIAZASPIRO COMPOUNDS AND ITS USE” (BIONOVA PHARMACEUTICALS (SHANGHAI) LIMITED, priority 2021, published 2024):

Assays:
MV-4-11 cells = assay: Cell proliferation assay (CellTiter-Glo), MV-4-11; type: cell-based, human; settings: Homo sapiens, MV4-11, 96 h; MV-4-11 (MLL-AF4), 4 days incubation; read-out: Cell antiproliferation assay MV-4-11 IC50
Protocol: The antiproliferative activity of test compounds was assessed in human leukemia cell lines. The cell line MV4-11, MOLM13 and OCI-AML3, which expresses the MLL fusion protein MLL-AF4, MLL-AF9 and carry the NPM1c gene mutation, respectively, were tested. HL-60 was used as a control cell line containing two MLL wildtype alleles in order to exclude compounds that display general cytotoxic effect. MV4-11 cells were cultured in IMDM supplemented with 10% FBS, MOLM13 and OCI-AML3 cells were cultured in RPMI1640 supplemented with 20% FBS, and HL-60 cells were cultured in IMDM supplemented with 20% FBS. Corresponding cells (MV4-11, MOLM13, OCI-AML3 or HL-60 cell line) were seeded in 100 uL medium per well in 96-well plate (white wall with clear bottom, tissue culture treated, Corning, Cat. No. CLS3903; Lot.No. 30419025). Plates were placed in the CO2 incubator overnight. Compounds solution (2 mM starting, 4-fold serial dilution) were prepared and added to the wells containing 100 μL of the culture medium with HPD300 according to the plate map and centrifuge at 1000 rpm for 1 minutes (200-fold dilution totally). MV4-11, MOLM13, OCI-AML3 and HL-60 cells were incubated with the compounds for 4, 12, 5 and 4 days, respectively, under 5% CO2 at 37° C., respectively. 100 μL of CellTiter-Glo reagent (Promega, Cat. No. G7573, Lot. No. 0000416710) was added to the assay plate by Multidrop Combi instrument, contents were mixed for 10 minutes on an orbital shaker to induce cell lysis. After incubation at room temperature for 10 mins, clear bottom with white back seal was pasted and luminescence with Envision was read.

Menin-MLL1 = target: T1, Menin-MLL1 (Homo sapiens, UniProt O00255); assay: Menin-MLL1 inhibition assay (fluorescence polarization, Menin protein + FAM-MLL peptide); type: binding; settings: Menin (2-610) isoform 2, FAM-labelled MLL peptide, mP readout; read-out: Biochemical assay Menin-MLL1 IC50
T1 construct: Menin (2-610) isform2; purchased ChemPartner 2020111101
T1 sequence (O00255 2-610): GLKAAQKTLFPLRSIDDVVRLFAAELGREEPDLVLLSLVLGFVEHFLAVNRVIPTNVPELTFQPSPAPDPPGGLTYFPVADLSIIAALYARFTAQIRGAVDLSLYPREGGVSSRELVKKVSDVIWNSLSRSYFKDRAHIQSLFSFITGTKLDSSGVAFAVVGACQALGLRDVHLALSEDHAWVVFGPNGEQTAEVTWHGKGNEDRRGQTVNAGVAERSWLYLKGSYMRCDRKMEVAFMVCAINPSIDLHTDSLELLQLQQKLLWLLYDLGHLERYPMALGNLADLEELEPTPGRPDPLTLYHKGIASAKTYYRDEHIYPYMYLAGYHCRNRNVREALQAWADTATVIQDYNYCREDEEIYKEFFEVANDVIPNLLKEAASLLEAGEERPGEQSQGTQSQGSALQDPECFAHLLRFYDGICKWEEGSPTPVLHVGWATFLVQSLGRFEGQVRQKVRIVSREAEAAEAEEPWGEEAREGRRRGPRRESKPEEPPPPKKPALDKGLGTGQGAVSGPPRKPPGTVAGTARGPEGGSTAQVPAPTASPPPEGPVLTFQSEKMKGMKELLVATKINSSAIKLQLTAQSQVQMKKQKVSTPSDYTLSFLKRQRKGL
Protocol: 1× assay bu9ffer (Tris 7.5 50 mM, NaCl 50 mM, DTT 1 mM, Tween-20 0.01%) was prepared and test compounds solution (10 mM in DMSO, Sigma, Cat. No. 34869) were transferred to assay plate (384-well plate, Perkin Elmer, Cat. No. 6007279) by Echo. The final fraction of DMSO is 1%. 20 nM of Menin protein (Menin (2-610) isform2, ChemPartner, Cat. No. 2020111101) in 1× assay buffer was added to prepare 2× enzyme solution. Then 10 nM of MLL-peptide (Ac-SRWRFPARPGTGRR-Ahx-Ahx-K(FAM)-NH2, GL Biochem (Shanghai)), Cat. No. 833831/202009220104) in 1× assay buffer was added to prepare 2× substrate solution. 10 μL of 2× enzyme solution was transferred to assay plate or 10 μL of 1× assay buffer for low control group. 10 μL of 2× substrate solution was added to each well to start reaction. mP data on Envision (Ex480/Em535(s), Em535(p)) was collected.
Compound potencies were determined by first calculating % inhibition at each compound concentration according to equation 1:
Inhibition %=(Max−Signal)/(Max−Min)*100 (Equation 1)
Y=Bottom+(Top-Bottom)/(1+(IC50/X)[…]), where Y is % inhibition and X is compound concentration (Equation 2)

| IC50 (MV-4-11 cells) | IC50 (Menin-MLL1) | SMILES |
| --- | --- | --- |
| 332 nM | 5.5 nM | CCN(C(=O)c1cc(F)ccc1Oc1cncnc1N1CC2(CCN(C(=O)[C@H]3NCC[C@@H]3O)CC2)C1)C(C)C [Example 8] |
| 42.2 nM | 5.8 nM | CCN(C(=O)c1cc(F)ccc1Oc1cncnc1N1CC2(CCN(C(=O)[C@@H]3CCCN3)CC2)C1)C(C)C [Example 21] |
| 26.2 nM | 5.4 nM | CCN(C(=O)c1cc(F)ccc1Oc1cncnc1N1CC2(CCN(C(=O)[C@H]3NCC[C@H]3C)CC2)C1)C(C)C [Example 40] |
| 33.8 nM | 4.7 nM | CCN(C(=O)c1cc(F)ccc1Oc1cncnc1N1CC2(CCN(C(=O)[C@@H]3C[C@@H]4C[C@@H]4N3)CC2)C1)C(C)C [Example 30] |
| 329 nM | 20.9 nM | CCN(C(=O)c1cc(F)ccc1Oc1cncnc1N1CC2(CCN(C(=O)[C@@H]3C[C@H](F)CN3)CC2)C1)C(C)C [Example 3] |
| 128 nM | 6.3 nM | CCN(C(=O)c1cc(F)ccc1Oc1cncnc1N1CC2(CCN(C(=O)[C@@H]3C[C@]4(CO)CC4N3)CC2)C1)C(C)C (some centres unmarked) [Example 11] |
| 33.1 nM | 5 nM | CCN(C(=O)c1cc(F)ccc1Oc1cncnc1N1CC2(CCN(C(=O)[C@@H]3CCCCN3)CC2)C1)C(C)C [Example 4] |
| 220 nM | 7.5 nM | CCN(C(=O)c1cc(F)ccc1Oc1cncnc1N1CC2(CCN(C(=O)[C@H]3NCC[C@H]3O)CC2)C1)C(C)C [Example 7] |
| 440 nM | 7 nM | CCN(C(=O)c1cc(F)ccc1Oc1cncnc1N1CC2(CCN(C(=O)[C@@H]3C[C@@H](O)CN3)CC2)C1)C(C)C [Example 5] |
| 33.8 nM | 6 nM | CCN(C(=O)c1cc(F)ccc1Oc1cncnc1N1CC2(CCN(C(=O)[C@@H]3C[C@]4(C)C[C@@H]4N3)CC2)C1)C(C)C [Example 6] |
| 420 nM | 18.4 nM | CCN(C(=O)c1cc(F)ccc1Oc1cncnc1N1CC2(CCN(C(=O)[C@@H]3C[C@@H](C#N)CN3)CC2)C1)C(C)C [Example 27, 2-((4-(7-((2S,4R)-4-cyanopyrrolidine-2-carbonyl)-2,7-diazaspiro[3.5]nonan-2-yl)pyrimidin-5-yl)oxy)-N-ethyl-5-fluoro-N-isopropylbenzamide] |
| 127 nM | 8.7 nM | CCN(C(=O)c1cc(F)ccc1Oc1cncnc1N1CC2(CCN(C(=O)[C@@H]3C[C@]4(CN3)CC4(F)F)CC2)C1)C(C)C [Example 23] |
| 238 nM | 8.3 nM | CCN(C(=O)c1cc(F)ccc1Oc1cncnc1N1CC2(CCN(C(=O)[C@@H]3C[C@@H](OC(F)F)CN3)CC2)C1)C(C)C [Example 10] |

The remaining lines, values behind:

| SMILES | IC50 (MV-4-11 cells) | IC50 (Menin-MLL1) |
| --- | --- | --- |
| CC1(C)[C@@H]2[C@@H](C(=O)N3CCC4(CC3)CN(c3ncnnc3Oc3ccc(F)cc3-c3ccc(C#N)nc3C3CC3)C4)NC[C@@H]21 [Example 95] | 5.5 nM | 2.5 nM |
| N#Cc1ccc(-c2cc(F)ccc2Oc2nncnc2N2CC3(CCN(C(=O)[C@H]4NC[C@@H]5C[C@@H]54)CC3)C2)c(C2CC2)n1 [Example 94] | 11.8 nM | 3.4 nM |
| CCN(C(=O)c1cc(F)ccc1Oc1nncnc1N1CC2(CCN(C(=O)[C@H]3NC[C@H](C)[C@@H]3C)CC2)C1)C(C)C [Example 92] | 18.8 nM | 8 nM |
| CCN(C(=O)c1cc(F)ccc1Oc1cncnc1N1CC2(CCN(C(=O)[C@H]3NCc4c3cnn4Cc3ccccc3)CC2)C1)C(C)C [Example 44] | 30.7 nM | 3.9 nM |
| CCN(C(=O)c1cc(Cl)ccc1Oc1cncnc1N1CC2(CCN(C(=O)[C@@H]3C[C@@H](F)CN3)CC2)C1)C(C)C [Example 19] | 40.2 nM | 5 nM |
| COCCN(C(=O)c1cc(F)ccc1Oc1cncnc1N1CC2(CCN(C(=O)[C@@H]3C[C@@H](F)CN3)CC2)C1)C(C)C [Example 50] | 120 nM | 4.4 nM |
| CC(C)N(CCO)C(=O)c1cc(F)ccc1Oc1nncnc1N1CC2(CCN(C(=O)[C@H]3NC[C@@H]4CCC[C@@H]43)CC2)C1 [Example 104] | 26.7 nM | 4.5 nM |
| CCN(C(=O)c1cc(F)ccc1Oc1nncnc1N1CC2(CCN(C(=O)[C@@H]3NCC[C@H]3CF)CC2)C1)C(C)C [Example 89] | 1010 nM | 24 nM |
| CCN(C(=O)c1cc(F)ccc1Oc1cncnc1N1CC2(CCN(C(=O)[C@@H]3C[C@@H](F)CN3)CC2)C1)C1CC1 [Example 20] | 267 nM | 10.1 nM |
| CCN(C(=O)c1cc(F)ccc1Oc1nncnc1N1CC2(CCN(C(=O)[C@@H]3CC(CC#N)CN3)CC2)C1)C(C)C (some centres unmarked) [Example 61] | 153 nM | 6.1 nM |
| CCN(C(=O)c1cc(F)ccc1Oc1nncnc1N1CC2(CCN(C(=O)[C@@H]3NCC[C@H]3C(F)F)CC2)C1)C(C)C [Example 99b, 2-((5-(7-((2R,3R)-3-(difluoromethyl)pyrrolidine-2-carbonyl)-2,7-diazaspiro[3.5]nonan-2-yl)-1,2,4-triazin-6-yl)oxy)-N-ethyl-5-fluoro-N-isopropylbenzamide] | 1930 nM | 43 nM |
| CC(C)n1ncc(Cl)c1-c1cc(F)ccc1Oc1nncnc1N1CC2(CCN(C(=O)[C@@H]3C[C@@H](F)CN3)CC2)C1 [Example 75] | 40.6 nM | 5.8 nM |
| CCN(C(=O)c1cc(F)ccc1Oc1nncnc1N1CC2(CCN(C(=O)[C@H]3NC[C@@H]4CC(F)(F)C[C@@H]43)CC2)C1)C(C)C (single isomer, unassigned) [Example 98d] | 29.5 nM | 2.3 nM |
| CC(C)N(CC(F)F)C(=O)c1cc(F)ccc1Oc1nncnc1N1CC2(CCN(C(=O)[C@H]3NC[C@@H]4CCC[C@@H]43)CC2)C1 [Example 105] | 17.1 nM | 4 nM |
| O=C([C@@H]1C[C@@H](F)CN1)N1CCC2(CC1)CN(c1ncncc1Oc1ccc(F)cc1C(=O)N1C3CCC1COC3)C2 [Example 59] | 159 nM | 5.5 nM |
| CCN(C(=O)c1cc(F)ccc1Oc1cncnc1N1CC2(CCN(C(=O)[C@H]3NCc4[nH]ncc43)CC2)C1)C(C)C [Example 54] | 582 nM | 4.3 nM |
| CC(C)N(C(=O)c1cc(F)ccc1Oc1nncnc1N1CC2(CCN(C(=O)[C@@H]3C[C@@H](C)CN3)CC2)C1)C(C)C [Example 73] | 22 nM | 4.1 nM |
| CC[C@@H]1CCN[C@H]1C(=O)N1CCC2(CC1)CN(c1ncnnc1Oc1ccc(F)cc1C(=O)N(CC)C(C)C)C2 [Example 71] | 1250 nM | 16 nM |
| CO[C@H]1CCN[C@@H]1C(=O)N1CCC2(CC1)CN(c1ncnnc1Oc1ccc(F)cc1-c1ccc(C#N)nc1C1CC1)C2 [Example 101] | 6.8 nM | 6 nM |
| CCN(C(=O)c1ccccc1Oc1cncnc1N1CC2(CCN(C(=O)[C@@H]3C[C@@H](F)CN3)CC2)C1)C(C)C [Example 36] | 66 nM | 4 nM |
| CCN(C(=O)c1cc(F)ccc1Oc1cncnc1N1CCC2(CC1)CN(C(=O)[C@@H]1C[C@@H](F)CN1)C2)C(C)C [Example 46] | 494 nM | 7.7 nM |
